In patent publication US20100105664A1, “ORGANIC COMPOUNDS” (priority 2006, published 2010):
Counter-ions that a name gives are not always drawn.

Molecular target: T1, human MK2 (Homo sapiens, UniProt P49137)
T1 construct: made in house
Assay: MAPKAPK2 (or MK2) Kinase Assay
Format: biochemical
Conditions: activated MAPKAPK2, Hsp27 peptide substrate, 5 μM ATP, TR-FRET
Experimental: MAPKAPK2 (or MK2) Kinase Assay
MAPAPK2 is pre-activated in kinase buffer (25 mM TRIS-HCL, pH 7.5, 25 mM beta-glycerophosphate, 0.1 mM sodium orthovanadate, 25 mM MgCl2, 20 μM DTT) containing 5 μM ATP, 150 μg/ml human MK2 (HPLC purified in house), 30 μg/ml active human p38α (HPLC purified in house) for 30 min at 22° C. For the measurement of compound inhibition on activated MAPAPK2, each reaction contained test compound (10 μl; 0.5% DMSO final) or vehicle control, 250 nM Hsp27 peptide biotinyl-AYSRALSRQLSSGVSEIR—COOH as substrate (10 μl) and pre-activated MAPKAP2 kinase mix (10 μl) containing ATP (5 μM final). To define non-specific, reactions are performed in the absence of substrate. Following incubation at 22° C. for 45 min, kinase reactions are terminated with 125 μM EDTA (10 μl). Samples (10 μl) are transferred to black low volume 384-well plates (Greiner) prior to the detection of phosphorylated substrate by time-resolved fluorescence resonance energy transfer (TR-FRET). Phosphorylated Hsp27 is measured using an antibody mix (10 μl) containing a rabbit anti-phospho-Hsp27 (Ser^82) antibody (2.5 nM, Upstate) in conjunction with an anti-rabbit europium-labeled secondary antibody LANCE Eu-W1024 (2.5 nM; Perkin Elmer) as fluorescence donor along with streptavidin SureLight-APC (6.25 nM; Perkin Elmer) as a fluorescence acceptor. Following incubation at 22° C. for 90 min, plates are measured at 615 and 665 nm using a PHERAstar (BMG Labtech). The 615/665 nm ratio is determined following subtraction of background. Values are expressed as % inhibition using control values. Individual IC50 values of compounds are determined by nonlinear regression after fitting of curves to the experimental data using Excel XL fit 4.0 (Microsoft).
For a number of compounds being identified by their example No. the efficacy is disclosed as being assessable by the above described MK2 kinase assay: […]

T1 sequence (P49137 whole entry): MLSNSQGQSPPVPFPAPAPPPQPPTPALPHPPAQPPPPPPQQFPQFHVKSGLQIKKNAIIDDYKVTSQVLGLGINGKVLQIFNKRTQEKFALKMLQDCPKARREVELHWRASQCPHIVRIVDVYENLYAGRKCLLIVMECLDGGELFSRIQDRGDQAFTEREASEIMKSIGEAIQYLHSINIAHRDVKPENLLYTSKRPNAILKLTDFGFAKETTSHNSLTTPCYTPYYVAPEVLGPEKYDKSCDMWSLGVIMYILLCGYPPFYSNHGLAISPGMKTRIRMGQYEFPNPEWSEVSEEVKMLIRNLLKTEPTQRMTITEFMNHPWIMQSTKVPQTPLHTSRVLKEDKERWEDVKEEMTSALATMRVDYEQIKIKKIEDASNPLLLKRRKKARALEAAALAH

| SMILES | IC50 |
| --- | --- |
| N#Cc1cc(-c2ccnc(/C=C/c3ccc(C(=O)N4CCOCC4)cc3)c2)[nH]c1N1CCNCC1 [Example 75, 5-(2-{(E)-2-[4-(Morpholine-4-carbonyl)-phenyl]-vinyl}-pyridin-4-yl)-2-piperazin-1-yl-1H-pyrrole-3-carbonitrile] | 150 nM |
| N#Cc1cc(-c2ccnc(/C=C/c3ccccc3)c2)[nH]c1CCN [Example 148, 2-(2-Amino-ethyl)-5-[2-((E)-styryl)-pyridin-4-yl]-1H-pyrrole-3-carbonitrile] | 150 nM |
| NC(=O)c1cc(-c2ccnc(-c3ccc(S(=O)(=O)N4CCOCC4)cc3)c2)[nH]c1N1CCNCC1 [Example 51, 5-{2-[4-(Morpholine-4-sulfonyl)-phenyl]-pyridin-4-yl}-2-piperazin-1-yl-1H-pyrrole-3-carboxylic acid amide] | 50 nM |
| NCCc1[nH]c(-c2ccnc(/C=C/c3ccccc3)c2)cc1C(=O)O [Example 155, 2-(2-Amino-ethyl)-5-[2-((E)-styryl)-pyridin-4-yl]-1H-pyrrole-3-carboxylic acid] | 80 nM |
| N#Cc1cc(-c2ccnc(/C=C/c3ccccc3)c2)[nH]c1C1CCNCC1 [Example 144, 2-Piperidin-4-yl-5-[2-((E)-styryl)-pyridin-4-yl]-1H-pyrrole-3-carbonitrile] | 210 nM |
| NC(=O)c1cc(-c2ccnc(/C=C/c3ccccc3)c2)[nH]c1N1CCNCC1 [Example 14, 2-Piperazin-1-yl-5-[2-((E)-styryl)-pyridin-4-yl]-1H-pyrrole-3-carboxylic acid amide] | 120 nM |
| CN1CCN(c2ccc(-c3cc(-c4cc(C(N)=O)c(N5CCNCC5)[nH]4)ccn3)cn2)CC1 [Example 110, 5-[6′-(4-Methyl-piperazin-1-yl)-[2,3′]bipyridinyl-4-yl]-2-piperazin-1-yl-1H-pyrrole-3-carboxylic acid amide] | 150 nM |
| NC(=O)c1cc(-c2ccnc(/C=C/c3ccccc3)c2)[nH]c1C1=CCNCC1 [Example 170, 5-[2-((E)-Styryl)-pyridin-4-yl]-2-(1,2,3,6-tetrahydro-pyridin-4-yl)-1H-pyrrole-3-carboxylic acid amide] | 270 nM |
| NC(=O)c1cc(-c2ccnc(Nc3cccc(S(=O)(=O)N4CCOCC4)c3)c2)[nH]c1N1CCNCC1 [Example 93, 5-{2-[3-(Morpholine-4-sulfonyl)-phenylamino]-pyridin-4-yl}-2-piperazin-1-yl-1H-pyrrole-3-carboxylic acid amide] | 90 nM |
| Cc1[nH]c(-c2ccnc(/C=C/c3ccc(CN4CCOCC4)cc3)c2)cc1C#N [Example 131, 2-Methyl-5-{2-[(E)-2-(4-morpholin-4-ylmethyl-phenyl)-vinyl]-pyridin-4-yl}-1H-pyrrole-3-carbonitrile] | 290 nM |
| NC(=O)c1cc(-c2ccnc(-c3ccc(C(=O)NC4CCCC4)cc3)c2)[nH]c1N1CCNCC1 [Example 55, 5-[2-(4-Cyclopentylcarbamoyl-phenyl)-pyridin-4-yl]-2-piperazin-1-yl-1H-pyrrole-3-carboxylic acid amide] | 260 nM |
| CN1CCC(Oc2ccc(-c3cc(-c4cc(C#N)c(N5CCNCC5)[nH]4)ccn3)cn2)CC1 [Example 105, 5-[6′-(1-Methyl-piperidin-4-yloxy)-[2,3′]bipyridinyl-4-yl]-2-piperazin-1-yl-1H-pyrrole-3-carbonitrile trifluoroacetate] | 70 nM |
| NC(=O)c1cc(-c2ccnc(/C=C/c3ccc(F)cc3)c2)[nH]c1N1CCNCC1 [Example 9, 5-{2-[(E)-2-(4-Fluoro-phenyl)-vinyl]-pyridin-4-yl}-2-piperazin-1-yl-1H-pyrrole-3-carboxylic acid amide] | 130 nM |
| NC(=O)c1cc(-c2ccnc(-c3ccc(N4CCCCC4)nc3)c2)[nH]c1N1CCNCC1 [Example 109, 2-Piperazin-1-yl-5-(3,4,5,6-tetrahydro-2H-[1,2′;5′,2″]terpyridin-4″-yl)-1H-pyrrole-3-carboxylic acid amide] | 160 nM |
| NC(=O)c1cc(-c2ccnc(/C=C/c3ccc(CN4CCOCC4)cc3)c2)[nH]c1N1CCNCC1 [Example 72, 5-{2-[(E)-2-(4-Morpholin-4-ylmethyl-phenyl)-vinyl]-pyridin-4-yl}-2-piperazin-1-yl-1H-pyrrole-3-carboxylic acid amide hydrobromide] | 100 nM |
| NC(=O)c1cc(-c2ccnc(/C=C/c3cccnc3)c2)[nH]c1N1CCNCC1 [Example 81, 2-Piperazin-1-yl-5-[2-((E)-2-pyridin-3-yl-vinyl)-pyridin-4-yl]-1H-pyrrole-3-carboxylic acid amide] | 140 nM |
| N#Cc1cc(-c2ccnc(-c3cnc(N4CCCOCC4)nc3)c2)[nH]c1N1CCNCC1 [Example 118, 5-[2-(2-[1,4]Oxazepan-4-yl-pyrimidin-5-yl)-pyridin-4-yl]-2-piperazin-1-yl-1H-pyrrole-3-carbonitrile trifluoroacetate] | 70 nM |
| NC(=O)c1cc(-c2ccnc(-c3ccc(N4CCN(Cc5ccccc5)CC4)nc3)c2)[nH]c1N1CCNCC1 [Example 116, 5-[6′-(4-Benzyl-piperazin-1-yl)-[2,3′]bipyridinyl-4-yl]-2-piperazin-1-yl-1H-pyrrole-3-carboxylic acid amide] | 200 nM |
